Target: Sigma non-opioid intracellular receptor 1 (Homo sapiens, UniProt Q99720)
Experiment: DRUGMATRIX: Sigma1 radioligand binding (ligand: [3H] Haloperidol)
Assay type: cell membranes, Jurkat, Membrane
Settings: jurkat; Not Active = under 50% inhibition at 10 µM

Chain of Sigma non-opioid intracellular receptor 1 (Q99720 whole entry): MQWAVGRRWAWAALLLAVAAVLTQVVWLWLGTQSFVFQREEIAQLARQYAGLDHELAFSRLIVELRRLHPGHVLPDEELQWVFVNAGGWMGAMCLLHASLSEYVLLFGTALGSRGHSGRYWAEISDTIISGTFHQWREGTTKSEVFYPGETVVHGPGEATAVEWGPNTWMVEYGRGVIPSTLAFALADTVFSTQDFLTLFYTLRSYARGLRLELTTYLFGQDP

Compound	IC50
C=CCN1CC[C@]23c4c5ccc(O)c4O[C@H]2C(=O)CC[C@@]3(O)[C@H]1C5 [NALOXONE]	Not Active
COCCOC(=O)C1=C(C)NC(C)=C(C(=O)OC(C)C)C1c1cccc([N+](=O)[O-])c1 (stereo unspecified) [NIMODIPINE]	Not Active
CC(C)c1nc(CN(C)C(=O)N[C@H](C(=O)N[C@@H](Cc2ccccc2)C[C@H](O)[C@H](Cc2ccccc2)NC(=O)OCc2cncs2)C(C)C)cs1 [RITONAVIR]	Not Active
COc1cc(NS(=O)(=O)c2ccc(N)cc2)nc(OC)n1 [SULFADIMETHOXINE]	Not Active
CC(C)(C)c1ccc(C(O)CCCN2CCC(C(O)(c3ccccc3)c3ccccc3)CC2)cc1 (stereo unspecified) [TERFENADINE]	Not Active
CC(=O)CC(c1ccccc1)c1c(O)c2ccccc2oc1=O (stereo unspecified) [WARFARIN]	Not Active

Target: Tyrosine-protein kinase Fyn (Homo sapiens, UniProt P06241);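 further: enzymatic inhibition of Fyn kinase activity measured with Poly(Glu:Tyr) as the phosphorylation substrate; in other assays of this panel Not Active means under 50% inhibition at 10 µM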
Experiment: biochemical
Assay type: cell-based, Insect cells
Settings: insect cells

Chain of Tyrosine-protein kinase Fyn (P06241 whole entry): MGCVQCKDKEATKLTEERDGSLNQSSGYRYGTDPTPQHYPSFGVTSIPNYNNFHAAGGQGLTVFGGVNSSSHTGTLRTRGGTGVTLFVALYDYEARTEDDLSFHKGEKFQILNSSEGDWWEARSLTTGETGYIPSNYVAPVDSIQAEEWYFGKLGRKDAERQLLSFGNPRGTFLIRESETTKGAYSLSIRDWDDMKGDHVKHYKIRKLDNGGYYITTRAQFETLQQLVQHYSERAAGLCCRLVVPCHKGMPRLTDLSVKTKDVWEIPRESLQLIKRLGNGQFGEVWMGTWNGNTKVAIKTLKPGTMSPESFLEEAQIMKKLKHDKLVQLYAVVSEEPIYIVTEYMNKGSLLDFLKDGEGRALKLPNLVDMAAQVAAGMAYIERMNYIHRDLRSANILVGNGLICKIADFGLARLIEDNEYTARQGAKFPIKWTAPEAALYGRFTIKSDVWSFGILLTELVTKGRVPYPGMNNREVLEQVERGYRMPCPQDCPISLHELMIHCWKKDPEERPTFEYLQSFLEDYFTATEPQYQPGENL

Compound	IC50
C=CCN1CC[C@]23c4c5ccc(O)c4O[C@H]2C(=O)CC[C@@]3(O)[C@H]1C5 [NALOXONE]	Not Active
COCCOC(=O)C1=C(C)NC(C)=C(C(=O)OC(C)C)C1c1cccc([N+](=O)[O-])c1 (stereo unspecified) [NIMODIPINE]	Not Active
CC(C)c1nc(CN(C)C(=O)N[C@H](C(=O)N[C@@H](Cc2ccccc2)C[C@H](O)[C@H](Cc2ccccc2)NC(=O)OCc2cncs2)C(C)C)cs1 [RITONAVIR]	Not Active
COc1cc(NS(=O)(=O)c2ccc(N)cc2)nc(OC)n1 [SULFADIMETHOXINE]	Not Active
CC(=O)CC(c1ccccc1)c1c(O)c2ccccc2oc1=O (stereo unspecified) [WARFARIN]	Not Active

Same assay, conditions: read-out: IC50

Compound	IC50 [µM]
O=C(c1ccc(OCCN2CCCCC2)cc1)c1c(-c2ccc(O)cc2)sc2cc(O)ccc12 [RALOXIFENE]	3.67
CC(C)(C)c1ccc(C(O)CCCN2CCC(C(O)(c3ccccc3)c3ccccc3)CC2)cc1 (stereo unspecified) [TERFENADINE]	6.12

Target: T1, Glucocorticoid receptor (Homo sapiens, UniProt P04150); further: in other assays of this panel Not Active means under 50% inhibition at 10 µM
T1 sequence (P04150 whole entry): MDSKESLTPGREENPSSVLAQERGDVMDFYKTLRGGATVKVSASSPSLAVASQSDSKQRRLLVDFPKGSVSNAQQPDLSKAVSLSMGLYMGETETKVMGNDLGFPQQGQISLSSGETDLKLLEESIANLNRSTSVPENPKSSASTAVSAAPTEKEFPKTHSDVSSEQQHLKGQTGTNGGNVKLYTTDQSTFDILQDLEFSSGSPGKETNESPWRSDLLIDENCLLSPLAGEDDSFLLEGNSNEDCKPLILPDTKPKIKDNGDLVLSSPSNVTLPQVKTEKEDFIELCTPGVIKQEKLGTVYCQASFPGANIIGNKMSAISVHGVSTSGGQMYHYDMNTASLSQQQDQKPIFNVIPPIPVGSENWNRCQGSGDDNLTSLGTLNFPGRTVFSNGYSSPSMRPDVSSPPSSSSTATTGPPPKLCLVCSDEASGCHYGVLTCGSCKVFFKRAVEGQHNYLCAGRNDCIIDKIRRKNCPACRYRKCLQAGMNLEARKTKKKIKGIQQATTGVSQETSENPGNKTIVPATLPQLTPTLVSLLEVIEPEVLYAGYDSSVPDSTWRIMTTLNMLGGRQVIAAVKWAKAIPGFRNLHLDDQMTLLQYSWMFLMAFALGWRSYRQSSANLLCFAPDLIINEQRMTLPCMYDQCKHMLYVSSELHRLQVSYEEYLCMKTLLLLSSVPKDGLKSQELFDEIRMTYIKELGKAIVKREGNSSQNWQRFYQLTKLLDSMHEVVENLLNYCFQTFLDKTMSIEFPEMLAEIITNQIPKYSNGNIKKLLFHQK
Experiment: not given
Settings: hela s3

Compound	IC50
COCCOC(=O)C1=C(C)NC(C)=C(C(=O)OC(C)C)C1c1cccc([N+](=O)[O-])c1 (stereo unspecified) [NIMODIPINE]	Not Active
O=C(c1ccc(OCCN2CCCCC2)cc1)c1c(-c2ccc(O)cc2)sc2cc(O)ccc12 [RALOXIFENE]	Not Active
CC(C)c1nc(CN(C)C(=O)N[C@H](C(=O)N[C@@H](Cc2ccccc2)C[C@H](O)[C@H](Cc2ccccc2)NC(=O)OCc2cncs2)C(C)C)cs1 [RITONAVIR]	Not Active
COc1cc(NS(=O)(=O)c2ccc(N)cc2)nc(OC)n1 [SULFADIMETHOXINE]	Not Active
CC(C)(C)c1ccc(C(O)CCCN2CCC(C(O)(c3ccccc3)c3ccccc3)CC2)cc1 (stereo unspecified) [TERFENADINE]	Not Active

Target: Cytochrome P450 2C9 (Homo sapiens, UniProt P11712); further: in other assays of this panel Not Active means under 50% inhibition at 10 µM
Experiment: not given
Settings: bti-tn-5b1-4

Chain of Cytochrome P450 2C9 (P11712 whole entry): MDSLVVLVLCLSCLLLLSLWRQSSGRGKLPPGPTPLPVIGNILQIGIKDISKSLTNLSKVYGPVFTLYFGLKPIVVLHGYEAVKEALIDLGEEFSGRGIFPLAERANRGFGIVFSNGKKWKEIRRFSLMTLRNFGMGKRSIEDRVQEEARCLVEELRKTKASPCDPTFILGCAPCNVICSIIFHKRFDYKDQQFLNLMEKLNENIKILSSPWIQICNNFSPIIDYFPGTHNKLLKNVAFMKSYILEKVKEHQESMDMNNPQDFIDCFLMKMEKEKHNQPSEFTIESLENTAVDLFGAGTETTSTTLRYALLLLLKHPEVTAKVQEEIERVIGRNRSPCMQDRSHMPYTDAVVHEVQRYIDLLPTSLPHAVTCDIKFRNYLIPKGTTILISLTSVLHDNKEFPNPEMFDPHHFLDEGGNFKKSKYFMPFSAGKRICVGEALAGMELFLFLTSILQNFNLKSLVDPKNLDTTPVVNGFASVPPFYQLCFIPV

Compound	IC50	Ki
CC(=O)CC(c1ccccc1)c1c(O)c2ccccc2oc1=O (stereo unspecified) [WARFARIN]	Not Active	Not Active

Target: T2, Polyunsaturated fatty acid lipoxygenase ALOX15 (Oryctolagus cuniculus, UniProt P12530);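 further: inhibition of 15-lipoxygenase enzyme activity measured with linoleic acid as the substrate; in other assays of this panel Not Active means under 50% inhibition at 10 µM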
T2 sequence (P12530 whole entry): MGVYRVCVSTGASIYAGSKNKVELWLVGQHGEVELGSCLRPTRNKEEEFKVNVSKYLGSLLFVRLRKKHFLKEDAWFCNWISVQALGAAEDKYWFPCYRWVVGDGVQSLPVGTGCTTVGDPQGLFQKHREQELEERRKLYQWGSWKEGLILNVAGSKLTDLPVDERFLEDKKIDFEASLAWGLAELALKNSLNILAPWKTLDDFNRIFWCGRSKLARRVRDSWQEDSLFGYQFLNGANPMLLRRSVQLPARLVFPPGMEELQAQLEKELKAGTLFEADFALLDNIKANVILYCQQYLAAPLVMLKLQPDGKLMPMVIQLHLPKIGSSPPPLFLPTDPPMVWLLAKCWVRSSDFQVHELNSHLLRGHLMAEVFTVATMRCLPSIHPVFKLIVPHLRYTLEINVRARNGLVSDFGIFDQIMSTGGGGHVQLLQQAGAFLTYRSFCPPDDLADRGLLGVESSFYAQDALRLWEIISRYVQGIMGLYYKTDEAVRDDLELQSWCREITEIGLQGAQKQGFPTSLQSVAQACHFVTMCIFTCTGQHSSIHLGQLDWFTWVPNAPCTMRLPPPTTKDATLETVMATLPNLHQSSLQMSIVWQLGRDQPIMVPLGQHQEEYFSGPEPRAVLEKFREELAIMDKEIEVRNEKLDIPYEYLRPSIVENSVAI
Experiment: biochemical
Assay type: tissue-based, Reticulocytes
Settings: reticulocytes

Compound	IC50
C=CCN1CC[C@]23c4c5ccc(O)c4O[C@H]2C(=O)CC[C@@]3(O)[C@H]1C5 [NALOXONE]	Not Active
COCCOC(=O)C1=C(C)NC(C)=C(C(=O)OC(C)C)C1c1cccc([N+](=O)[O-])c1 (stereo unspecified) [NIMODIPINE]	Not Active
O=C(c1ccc(OCCN2CCCCC2)cc1)c1c(-c2ccc(O)cc2)sc2cc(O)ccc12 [RALOXIFENE]	Not Active
CC(C)c1nc(CN(C)C(=O)N[C@H](C(=O)N[C@@H](Cc2ccccc2)C[C@H](O)[C@H](Cc2ccccc2)NC(=O)OCc2cncs2)C(C)C)cs1 [RITONAVIR]	Not Active
COc1cc(NS(=O)(=O)c2ccc(N)cc2)nc(OC)n1 [SULFADIMETHOXINE]	Not Active
CC(C)(C)c1ccc(C(O)CCCN2CCC(C(O)(c3ccccc3)c3ccccc3)CC2)cc1 (stereo unspecified) [TERFENADINE]	Not Active
CC(=O)CC(c1ccccc1)c1c(O)c2ccccc2oc1=O (stereo unspecified) [WARFARIN]	Not Active

Target: D(3) dopamine receptor (Homo sapiens, UniProt P35462)
Experiment: DRUGMATRIX: Dopamine D3 radioligand binding (ligand: [3H] Spiperone)
Assay type: cell membranes, CHO, Membrane
Settings: cho

Chain of D(3) dopamine receptor (P35462 whole entry): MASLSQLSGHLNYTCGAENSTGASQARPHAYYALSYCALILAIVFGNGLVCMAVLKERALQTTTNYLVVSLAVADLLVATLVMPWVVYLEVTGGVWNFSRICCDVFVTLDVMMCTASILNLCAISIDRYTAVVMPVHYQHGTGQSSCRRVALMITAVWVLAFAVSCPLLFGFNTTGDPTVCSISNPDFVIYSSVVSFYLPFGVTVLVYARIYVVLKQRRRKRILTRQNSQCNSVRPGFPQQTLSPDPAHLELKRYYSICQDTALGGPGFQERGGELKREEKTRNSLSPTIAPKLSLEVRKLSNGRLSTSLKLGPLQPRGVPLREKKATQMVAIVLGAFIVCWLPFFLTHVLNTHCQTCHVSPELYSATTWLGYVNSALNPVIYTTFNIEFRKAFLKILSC

Compound	IC50
C=CCN1CC[C@]23c4c5ccc(O)c4O[C@H]2C(=O)CC[C@@]3(O)[C@H]1C5 [NALOXONE]	Not Active
COCCOC(=O)C1=C(C)NC(C)=C(C(=O)OC(C)C)C1c1cccc([N+](=O)[O-])c1 (stereo unspecified) [NIMODIPINE]	Not Active
CC(C)c1nc(CN(C)C(=O)N[C@H](C(=O)N[C@@H](Cc2ccccc2)C[C@H](O)[C@H](Cc2ccccc2)NC(=O)OCc2cncs2)C(C)C)cs1 [RITONAVIR]	Not Active
COc1cc(NS(=O)(=O)c2ccc(N)cc2)nc(OC)n1 [SULFADIMETHOXINE]	Not Active
CC(=O)CC(c1ccccc1)c1c(O)c2ccccc2oc1=O (stereo unspecified) [WARFARIN]	Not Active

Target: Histamine H2 receptor (Homo sapiens, UniProt P25021); further: in other assays of this panel Not Active means under 50% inhibition at 10 µM
Experiment: not given
Assay type: cell membranes, CHO-K1, Membrane
Settings: cho-k1

Chain of Histamine H2 receptor (P25021 whole entry): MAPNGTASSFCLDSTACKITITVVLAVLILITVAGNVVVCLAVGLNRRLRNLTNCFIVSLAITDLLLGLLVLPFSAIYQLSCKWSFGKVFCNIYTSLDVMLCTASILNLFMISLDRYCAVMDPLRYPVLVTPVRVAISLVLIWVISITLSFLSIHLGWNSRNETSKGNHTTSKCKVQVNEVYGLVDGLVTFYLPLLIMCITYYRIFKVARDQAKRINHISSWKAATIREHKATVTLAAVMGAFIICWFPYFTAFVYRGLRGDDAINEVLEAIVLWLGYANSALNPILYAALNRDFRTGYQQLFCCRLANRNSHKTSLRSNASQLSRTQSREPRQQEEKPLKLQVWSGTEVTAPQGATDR

Compound	IC50
C=CCN1CC[C@]23c4c5ccc(O)c4O[C@H]2C(=O)CC[C@@]3(O)[C@H]1C5 [NALOXONE]	Not Active
COCCOC(=O)C1=C(C)NC(C)=C(C(=O)OC(C)C)C1c1cccc([N+](=O)[O-])c1 (stereo unspecified) [NIMODIPINE]	Not Active
O=C(c1ccc(OCCN2CCCCC2)cc1)c1c(-c2ccc(O)cc2)sc2cc(O)ccc12 [RALOXIFENE]	Not Active
CC(C)c1nc(CN(C)C(=O)N[C@H](C(=O)N[C@@H](Cc2ccccc2)C[C@H](O)[C@H](Cc2ccccc2)NC(=O)OCc2cncs2)C(C)C)cs1 [RITONAVIR]	Not Active
COc1cc(NS(=O)(=O)c2ccc(N)cc2)nc(OC)n1 [SULFADIMETHOXINE]	Not Active
CC(C)(C)c1ccc(C(O)CCCN2CCC(C(O)(c3ccccc3)c3ccccc3)CC2)cc1 (stereo unspecified) [TERFENADINE]	Not Active
CC(=O)CC(c1ccccc1)c1c(O)c2ccccc2oc1=O (stereo unspecified) [WARFARIN]	Not Active

Target: T3, 5-hydroxytryptamine receptor 2C (Homo sapiens, UniProt P28335)
T3 sequence (P28335 whole entry): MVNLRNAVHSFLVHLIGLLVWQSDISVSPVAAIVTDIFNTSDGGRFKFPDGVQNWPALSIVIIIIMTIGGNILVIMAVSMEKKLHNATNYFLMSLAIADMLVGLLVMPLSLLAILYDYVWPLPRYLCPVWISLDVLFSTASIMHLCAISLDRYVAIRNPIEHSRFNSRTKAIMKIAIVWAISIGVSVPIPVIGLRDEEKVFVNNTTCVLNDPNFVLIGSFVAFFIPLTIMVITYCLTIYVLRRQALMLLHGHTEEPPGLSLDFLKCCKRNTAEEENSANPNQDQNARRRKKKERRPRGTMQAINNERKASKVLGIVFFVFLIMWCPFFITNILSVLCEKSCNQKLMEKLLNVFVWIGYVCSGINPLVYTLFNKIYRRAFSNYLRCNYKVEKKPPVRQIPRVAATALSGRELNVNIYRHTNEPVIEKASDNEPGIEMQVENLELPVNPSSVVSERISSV
Experiment: DRUGMATRIX: Serotonin (5-Hydroxytryptamine) 5-HT2C radioligand binding (ligand: [3H] Mesulergine)
Assay type: cell membranes, CHO-K1, Membrane
Settings: cho-k1; Not Active = under 50% inhibition at 10 µM

Compound	IC50
C=CCN1CC[C@]23c4c5ccc(O)c4O[C@H]2C(=O)CC[C@@]3(O)[C@H]1C5 [NALOXONE]	Not Active
COCCOC(=O)C1=C(C)NC(C)=C(C(=O)OC(C)C)C1c1cccc([N+](=O)[O-])c1 (stereo unspecified) [NIMODIPINE]	Not Active
CC(C)c1nc(CN(C)C(=O)N[C@H](C(=O)N[C@@H](Cc2ccccc2)C[C@H](O)[C@H](Cc2ccccc2)NC(=O)OCc2cncs2)C(C)C)cs1 [RITONAVIR]	Not Active
COc1cc(NS(=O)(=O)c2ccc(N)cc2)nc(OC)n1 [SULFADIMETHOXINE]	Not Active
CC(=O)CC(c1ccccc1)c1c(O)c2ccccc2oc1=O (stereo unspecified) [WARFARIN]	Not Active

Target: T4, Cholecystokinin receptor type A (Homo sapiens, UniProt P32238); further: in other assays of this panel Not Active means under 50% inhibition at 10 µM
T4 sequence (P32238 whole entry): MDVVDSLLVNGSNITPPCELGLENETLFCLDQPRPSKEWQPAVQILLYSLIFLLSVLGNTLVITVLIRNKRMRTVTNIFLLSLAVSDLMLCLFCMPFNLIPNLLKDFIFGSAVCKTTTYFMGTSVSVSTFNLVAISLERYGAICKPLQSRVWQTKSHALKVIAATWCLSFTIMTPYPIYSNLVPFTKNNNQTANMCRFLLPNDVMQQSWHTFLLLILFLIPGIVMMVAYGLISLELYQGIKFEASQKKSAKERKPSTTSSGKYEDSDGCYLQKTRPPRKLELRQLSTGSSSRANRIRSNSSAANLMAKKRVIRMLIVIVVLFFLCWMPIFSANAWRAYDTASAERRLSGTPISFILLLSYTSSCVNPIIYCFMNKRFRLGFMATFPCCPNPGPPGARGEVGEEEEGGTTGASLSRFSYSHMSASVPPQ
Experiment: not given
Assay type: cell membranes, Membrane
Settings: 1321-n1

Compound	IC50
C=CCN1CC[C@]23c4c5ccc(O)c4O[C@H]2C(=O)CC[C@@]3(O)[C@H]1C5 [NALOXONE]	Not Active
COCCOC(=O)C1=C(C)NC(C)=C(C(=O)OC(C)C)C1c1cccc([N+](=O)[O-])c1 (stereo unspecified) [NIMODIPINE]	Not Active
O=C(c1ccc(OCCN2CCCCC2)cc1)c1c(-c2ccc(O)cc2)sc2cc(O)ccc12 [RALOXIFENE]	Not Active
CC(C)c1nc(CN(C)C(=O)N[C@H](C(=O)N[C@@H](Cc2ccccc2)C[C@H](O)[C@H](Cc2ccccc2)NC(=O)OCc2cncs2)C(C)C)cs1 [RITONAVIR]	Not Active
COc1cc(NS(=O)(=O)c2ccc(N)cc2)nc(OC)n1 [SULFADIMETHOXINE]	Not Active
CC(C)(C)c1ccc(C(O)CCCN2CCC(C(O)(c3ccccc3)c3ccccc3)CC2)cc1 (stereo unspecified) [TERFENADINE]	Not Active
CC(=O)CC(c1ccccc1)c1c(O)c2ccccc2oc1=O (stereo unspecified) [WARFARIN]	Not Active
